Results as given in patent US9326973B2, “Hepatitis C virus inhibitors” (priority 2012, dated 2016).

Tested on: HCV replicon, genotype-1a variant with glutamine 30 changed to glutamate in the NS5A protein
Assay: microbe, parasite or virus in culture
Assay type: cell-based, HCV genotype 1a
Settings: HCV replicon genotype 1a Q30E (Q→E) variant; test compound titrated with an NS5A-targeting compound (BMS-790052 fixed at 200 nM); ranking of synergist activity
In short: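 Synergy was assessed by combining several fixed amounts of an NS5A-targeting compound with a titration of the second compound of interest.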

Structure (SMILES) | Fold-Synergistic 1a (Q30E) [fold]
COC(C)(C)[C@H](NC(=O)C(C)(C)C)c1nc(-c2ccc(-c3ccc(-c4c[nH]c([C@@H](NC(=O)C(C)(C)C)C(C)(C)OC)n4)cc3)cc2)c[nH]1 [Compound P-9] | >100
COC(=O)N[C@@H](C(=O)N[C@H](c1ncc(-c2ccc(-c3ccc(-c4cnc([C@@H](NC(=O)[C@H](NC(=O)OC)C(C)C)C(C)C)o4)cc3)cc2)o1)C(C)C)C(C)C [Compound N-1] | >10
O=C(C1CCCCC1)N1CCC[C@H]1c1ncc(-c2ccc(-c3ccc(-c4cnc([C@@H]5CCCN5C(=O)C5CCCCC5)[nH]4)cc3)cc2)[nH]1 [Compound S-167] | <10
Cc1nn(-c2ccccc2)nc1C(=O)N1CCC[C@H]1c1ncc(-c2ccc(-c3ccc(-c4cnc([C@@H]5CCCN5C(=O)c5nn(-c6ccccc6)nc5C)[nH]4)cc3)cc2)[nH]1 [Compound S-129] | >100
CC(C)(C)[C@H](NC(=O)C1(n2cncn2)CC1)c1nc(-c2ccc(-c3ccc(-c4c[nH]c([C@@H](NC(=O)C5(n6cncn6)CC5)C(C)(C)C)n4)cc3)cc2)c[nH]1 [Compound L-33] | >100
CC(C)(C)[C@H](NC(=O)c1ccccc1F)c1nc(-c2ccc(-c3ccc(-c4c[nH]c([C@@H](NC(=O)c5ccccc5F)C(C)(C)C)n4)c(F)c3)cc2)c[nH]1 [Compound N-95] | >100
C=C[C@@H]1C[C@]1(NC(=O)OC(C)(C)C)C(=O)N[C@H](c1nc(-c2ccc(-c3ccc(-c4c[nH]c([C@@H](NC(=O)[C@@]5(NC(=O)OC(C)(C)C)C[C@H]5C=C)C(C)(C)C)n4)cc3)cc2)c[nH]1)C(C)(C)C [Compound W-7] | >100
CC(C)(C)[C@H](NC(=O)C1CC2(C1)OCCO2)c1nc(-c2ccc(-c3ccc(-c4c[nH]c([C@@H](NC(=O)C5CC6(C5)OCCO6)C(C)(C)C)n4)cc3)cc2)c[nH]1 (stereo partly shown) [Compound W-178] | >100
CC(C)(C)[C@H](NC(=O)[C@H]1CC[C@@H](O)CC1)c1nc(-c2ccc(-c3ccc(-c4c[nH]c([C@@H](NC(=O)[C@H]5CC[C@@H](O)CC5)C(C)(C)C)n4)cc3)cc2)c[nH]1 [Compound W-134] | >100
COC(C)(C)C(=O)N[C@H](c1nc(-c2ccc(-c3ccc(-c4c[nH]c([C@@H](NC(=O)C(C)(C)OC)C(C)C)n4)cc3F)cc2)c[nH]1)C(C)C [Compound N-96] | >100
CC(C)CC(=O)N[C@@H](CC(C)(C)C)c1nc(-c2ccc(-c3ccc(-c4c[nH]c([C@H](CC(C)(C)C)NC(=O)CC(C)C)n4)cc3)cc2)c[nH]1 [Compound P-4] | >10
CC1([C@H](NC(=O)C(C)(C)C2(O)CCC(F)(F)CC2)c2nc(-c3ccc(-c4ccc(-c5c[nH]c([C@@H](NC(=O)C(C)(C)C6(O)CCC(F)(F)CC6)C6(C)CC6)n5)cc4)cc3)c[nH]2)CC1 [Compound P-144] | >100
CC(C)(C)[C@H](NC(=O)C(=O)N1CCC(F)(F)C1)c1nc(-c2ccc(-c3ccc(-c4c[nH]c([C@@H](NC(=O)C(=O)N5CCC(F)(F)C5)C(C)(C)C)n4)cc3)cc2)c[nH]1 [Compound W-22] | >100
CC(C)(C)[C@H](NC(=O)[C@H](O)C1CCCCC1)c1nc(-c2ccc(-c3ccc(-c4c[nH]c([C@@H](NC(=O)[C@H](O)C5CCCCC5)C(C)(C)C)n4)cc3)cc2)c[nH]1 [Compound L-74] | >100
CC(C)(C)OC(=O)N1CCCCC1(C)C(=O)N[C@H](c1nc(-c2ccc(-c3ccc(-c4c[nH]c([C@@H](NC(=O)C5(C)CCCCN5C(=O)OC(C)(C)C)C(C)(C)C)n4)cc3)cc2)c[nH]1)C(C)(C)C (stereo partly drawn) [Compound L-46a] | >100
CC(C)(C)NC(C)(C)C(=O)N[C@H](c1nc(-c2ccc(-c3ccc(-c4c[nH]c([C@@H](NC(=O)C(C)(C)NC(C)(C)C)C(C)(C)C)n4)cc3)cc2)c[nH]1)C(C)(C)C [Compound P-175] | >100
CC[C@H](NC(=O)[C@H](NC(=O)OC)C(C)C)c1nc(-c2ccc(-c3ccc(-c4c[nH]c([C@H](CC)NC(=O)[C@H](NC(=O)OC)C(C)C)n4)cc3)cc2)c[nH]1 [Compound N-40] | >100
C=C1C[C@@H](C(=O)N[C@H](c2nc(-c3ccc(-c4ccc(-c5c[nH]c([C@@H](NC(=O)[C@@H]6CC(=C)CN6C(=O)OC(C)(C)C)C(C)(C)C)n5)cc4)cc3)c[nH]2)C(C)(C)C)N(C(=O)OC(C)(C)C)C1 [Compound W-91] | >100
CC1([C@H](NC(=O)C2(C3(O)CCC(F)(F)CC3)CC2)c2nc(-c3ccc(-c4ccc(-c5c[nH]c([C@@H](NC(=O)C6(C7(O)CCC(F)(F)CC7)CC6)C6(C)CC6)n5)cc4)cc3)c[nH]2)CC1 [Compound P-147] | >100
CC(C)(C)C(=O)N[C@H](c1nc(-c2ccc(-c3ccc(-c4c[nH]c([C@@H](NC(=O)C(C)(C)C)C(C)(C)C)n4)c(F)c3)cc2)c[nH]1)C(C)(C)C [Compound N-93] | >100

Structure (SMILES) | Fold-Synergistic 1a (Q30E) [fold]
CN(C(=O)C(=O)N[C@H](c1nc(-c2ccc(-c3ccc(-c4c[nH]c([C@@H](NC(=O)C(=O)N(C)C5CC5)C(C)(C)C)n4)cc3)cc2)c[nH]1)C(C)(C)C)C1CC1 [Compound W-50] | >100
CC(C)(C)[C@H](NC(=O)C1CCN(c2cccc(C#N)c2)C1=O)c1nc(-c2ccc(-c3ccc(-c4c[nH]c([C@@H](NC(=O)C5CCN(c6cccc(C#N)c6)C5=O)C(C)(C)C)n4)cc3)cc2)c[nH]1 (stereo partly shown) [Compound S-291] | >100
CC(C)[C@H](NC(=O)c1cc(Cl)ccc1F)c1nc(-c2ccc3c(c2)Cc2cc(-c4c[nH]c([C@@H](NC(=O)c5cc(Cl)ccc5F)C(C)C)n4)ccc2-3)c[nH]1 [Compound N-73] | >100
CC(C)CC(=O)N[C@@H](Cc1ccccc1)c1nc(-c2ccc(-c3ccc(-c4c[nH]c([C@H](Cc5ccccc5)NC(=O)CC(C)C)n4)cc3)cc2)c[nH]1 [Compound P-6] | >10
O=C(Cc1ccccc1)N1CCC[C@H]1c1ncc(-c2ccc(-c3ccc(-c4cnc([C@@H]5CCCN5C(=O)Cc5ccccc5)[nH]4)cc3)cc2)[nH]1 [Compound S-107] | <10
CC(C)(C)C(=O)N[C@H](c1ncc(-c2ccc(-c3ccc(-c4cnc([C@@H](NC(=O)C(C)(C)C)C(C)(C)CF)[nH]4)cc3)cc2)[nH]1)C(C)(C)CF [Compound Y-68] | >100
CC(C)[C@H](NC(=O)C1CC2(C1)OCCO2)c1nc(-c2ccc(-c3ccc(-c4c[nH]c([C@@H](NC(=O)C5CC6(C5)OCCO6)C(C)C)n4)cc3)cc2)c[nH]1 (stereo partly shown) [Compound W-176] | >100
CC(CF)(CF)OC(=O)NC1(C(=O)N[C@H](c2nc(-c3ccc(-c4ccc(-c5c[nH]c([C@@H](NC(=O)C6(NC(=O)OC(C)(CF)CF)CC6)C(C)(C)C)n5)cc4)cc3)c[nH]2)C(C)(C)C)CC1 [Compound L-27] | >100
CCN(CC)C(=O)C(=O)N[C@H](c1nc(-c2ccc(-c3ccc(-c4c[nH]c([C@@H](NC(=O)C(=O)N(CC)CC)C(C)(C)C)n4)cc3)cc2)c[nH]1)C(C)(C)C [Compound W-33] | >100
COc1cc2ccccc2c(C(=O)N2CCCC2c2ncc(-c3ccc(-c4ccc(-c5cnc(C(NC(=O)C(C)(C)C)C(C)C)[nH]5)cc4)cc3)[nH]2)n1 (stereo not shown) [Compound Y-13] | >100
COC(=O)N1CCC[C@@]1(C)C(=O)N[C@H](c1nc(-c2ccc(-c3ccc(-c4c[nH]c([C@@H](NC(=O)[C@]5(C)CCCN5C(=O)OC)C(C)(C)C)n4)cc3)cc2)c[nH]1)C(C)(C)C [Compound L-23] | >100
COC(=O)c1ccccc1C(=O)N1CCC[C@H]1c1ncc(-c2ccc(-c3ccc(-c4cnc([C@@H]5CCCN5C(=O)c5ccccc5C(=O)OC)[nH]4)cc3)cc2)[nH]1 [Compound S-115] | <10
CC(C)(C)[C@H](NC(=O)C(C)(C)C1(O)CCOCC1)c1nc(-c2ccc(-c3ccc(-c4c[nH]c([C@@H](NC(=O)C(C)(C)C5(O)CCOCC5)C(C)(C)C)n4)cc3)cc2)c[nH]1 [Compound P-158] | >100
CC(C)(C)[C@H](NC(=O)[C@H]1CCCO1)c1nc(-c2ccc(-c3ccc(-c4c[nH]c([C@@H](NC(=O)[C@H]5CCCO5)C(C)(C)C)n4)cc3)cc2)c[nH]1 [Compound L-64] | >100
Cc1cc(C(=O)N2CCC[C@H]2c2ncc(-c3ccc(-c4ccc(-c5cnc([C@@H]6CCCN6C(=O)c6cc(C)nc(Cl)c6)[nH]5)cc4)cc3)[nH]2)cc(Cl)n1 [Compound S-131] | >10
COC(=O)N[C@H](C(=O)N[C@H](c1nc(-c2ccc(-c3ccc(-c4c[nH]c([C@@H](NC(=O)[C@@H](NC(=O)OC)C5C[C@@H](C)O[C@H](C)C5)C(C)(C)C)n4)cc3)cc2)c[nH]1)C(C)(C)C)C1C[C@@H](C)O[C@H](C)C1 (stereo partly drawn) [Compound L-72] | >10
CC(C)(C)[C@H](NC(=O)C(C)(C)[C@]1(O)C[C@H]2CC(F)(F)C[C@H]2C1)c1nc(-c2ccc(-c3ccc(-c4c[nH]c([C@@H](NC(=O)C(C)(C)[C@]5(O)C[C@H]6CC(F)(F)C[C@H]6C5)C(C)(C)C)n4)cc3)cc2)c[nH]1 [Compound P-157] | >100
CC(C)(C(=O)N[C@H](c1nc(-c2ccc(-c3ccc(-c4c[nH]c([C@@H](NC(=O)C(C)(C)C(=O)N5CC6CCC(C5)O6)C(C)(C)C)n4)cc3)cc2)c[nH]1)C(C)(C)C)C(=O)N1CC2CCC(C1)O2 [Compound W-145] | >10
CC(C)(C)OC(=O)NC1CCC(C(=O)N[C@H](c2nc(-c3ccc(-c4ccc(-c5c[nH]c([C@@H](NC(=O)C6CCC(NC(=O)OC(C)(C)C)CC6)C(C)(C)C)n5)cc4)cc3)c[nH]2)C(C)(C)C)CC1 (stereo partly shown) [Compound S-270] | >100
CC(C)(C)[C@H](NC(=O)C(=O)N(CCC#N)C1CC1)c1nc(-c2ccc(-c3ccc(-c4c[nH]c([C@@H](NC(=O)C(=O)N(CCC#N)C5CC5)C(C)(C)C)n4)cc3)cc2)c[nH]1 [Compound W-48] | >100
